Assay results taken from patent US20230066011A1, “PYRROLOPYRIMIDINE DERIVATIVE, AND PHARMACEUTICAL COMPOSITION FOR PREVENTING OR TREATING PROTEIN KINASE-RELATED DISEASE COMPRISING SAME AS ACTIVE INGREDIENT” (VORONOI CO., LTD., priority 2019, published 2023).

Legend:
Format in all cases: biochemical
human GST-CLK1 = target: T1, human GST-CLK1 (Homo sapiens, UniProt P49759); assay: GST-CLK1 enzyme inhibition, ADP-Glo kinase assay; conditions: ATP 10 μM, GST-CLK1 129-end
T1 construct: purified human GST-CLK1 (129-end, SignalChem) enzyme; purchased SignalChem
How it was run: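 ADP-Glo luminescence read-out, relative to untreated solvent control, gave IC50 (nM) from triplicate data sets. Reactions ran an hour at 25° C with 3 ng GST-CLK1 (residues 129-end), 10 μM ATP and specific substrate in Tris-HCl pH 7.4 buffer with MgCl2, BSA and DTT.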

LRRK2 (G2019S) = LRRK2 (G2019S) (Homo sapiens, UniProt Q5S007, G2019S); assay: LRRK2 G2019S enzyme inhibition, ADP-Glo kinase assay; parameters: purchased SignalChem L10-12GG; conditions: ATP 25 μM
How it was run: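 IC50 derived from luminescent ADP-Glo readout against untreated solvent control, twelve final compound concentrations from 50 μM downward. Reaction: recombinant human LRRK2 G2019S enzyme, 25 μM ATP, substrate, pH 7.4 Tris buffer with MgCl2/BSA/DTT, 25° C. for 2 hours.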

human GST-DYRK1A = target: T2, human GST-DYRK1A (Homo sapiens, UniProt Q13627); assay: GST-DYRK1A enzyme inhibition, ADP-Glo kinase assay; conditions: ATP 10 μM, GST-DYRK1A full length, read-out: DYRK1 IC50
T2 construct: purified human GST-DYRK1A (full length, Thermo Scientifics) enzyme; purchased Thermo Scientifics
How it was run: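 Full-length enzyme (10 ng) was incubated with 10 μM ATP and a specific substrate for 1 h at 25 °C in 40 mM Tris-HCl pH 7.4, 20 mM MgCl2, 0.5 mg/mL BSA, 50 μM DTT. Luminescence was read against a solvent control, and IC50 values were derived from 3 data sets.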

T1 sequence (P49759 129-484 limits assumed): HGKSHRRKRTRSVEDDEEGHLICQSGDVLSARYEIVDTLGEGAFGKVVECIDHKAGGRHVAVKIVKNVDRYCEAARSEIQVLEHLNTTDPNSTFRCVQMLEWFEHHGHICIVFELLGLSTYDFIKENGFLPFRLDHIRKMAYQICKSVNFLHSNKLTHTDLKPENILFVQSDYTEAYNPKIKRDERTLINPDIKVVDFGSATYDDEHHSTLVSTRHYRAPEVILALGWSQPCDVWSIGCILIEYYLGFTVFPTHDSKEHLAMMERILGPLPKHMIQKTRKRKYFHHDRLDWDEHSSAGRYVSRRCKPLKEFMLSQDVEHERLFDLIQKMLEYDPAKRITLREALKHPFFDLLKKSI
Sequence of LRRK2 (G2019S) (Q5S007 970-2527 G2019S limits assumed): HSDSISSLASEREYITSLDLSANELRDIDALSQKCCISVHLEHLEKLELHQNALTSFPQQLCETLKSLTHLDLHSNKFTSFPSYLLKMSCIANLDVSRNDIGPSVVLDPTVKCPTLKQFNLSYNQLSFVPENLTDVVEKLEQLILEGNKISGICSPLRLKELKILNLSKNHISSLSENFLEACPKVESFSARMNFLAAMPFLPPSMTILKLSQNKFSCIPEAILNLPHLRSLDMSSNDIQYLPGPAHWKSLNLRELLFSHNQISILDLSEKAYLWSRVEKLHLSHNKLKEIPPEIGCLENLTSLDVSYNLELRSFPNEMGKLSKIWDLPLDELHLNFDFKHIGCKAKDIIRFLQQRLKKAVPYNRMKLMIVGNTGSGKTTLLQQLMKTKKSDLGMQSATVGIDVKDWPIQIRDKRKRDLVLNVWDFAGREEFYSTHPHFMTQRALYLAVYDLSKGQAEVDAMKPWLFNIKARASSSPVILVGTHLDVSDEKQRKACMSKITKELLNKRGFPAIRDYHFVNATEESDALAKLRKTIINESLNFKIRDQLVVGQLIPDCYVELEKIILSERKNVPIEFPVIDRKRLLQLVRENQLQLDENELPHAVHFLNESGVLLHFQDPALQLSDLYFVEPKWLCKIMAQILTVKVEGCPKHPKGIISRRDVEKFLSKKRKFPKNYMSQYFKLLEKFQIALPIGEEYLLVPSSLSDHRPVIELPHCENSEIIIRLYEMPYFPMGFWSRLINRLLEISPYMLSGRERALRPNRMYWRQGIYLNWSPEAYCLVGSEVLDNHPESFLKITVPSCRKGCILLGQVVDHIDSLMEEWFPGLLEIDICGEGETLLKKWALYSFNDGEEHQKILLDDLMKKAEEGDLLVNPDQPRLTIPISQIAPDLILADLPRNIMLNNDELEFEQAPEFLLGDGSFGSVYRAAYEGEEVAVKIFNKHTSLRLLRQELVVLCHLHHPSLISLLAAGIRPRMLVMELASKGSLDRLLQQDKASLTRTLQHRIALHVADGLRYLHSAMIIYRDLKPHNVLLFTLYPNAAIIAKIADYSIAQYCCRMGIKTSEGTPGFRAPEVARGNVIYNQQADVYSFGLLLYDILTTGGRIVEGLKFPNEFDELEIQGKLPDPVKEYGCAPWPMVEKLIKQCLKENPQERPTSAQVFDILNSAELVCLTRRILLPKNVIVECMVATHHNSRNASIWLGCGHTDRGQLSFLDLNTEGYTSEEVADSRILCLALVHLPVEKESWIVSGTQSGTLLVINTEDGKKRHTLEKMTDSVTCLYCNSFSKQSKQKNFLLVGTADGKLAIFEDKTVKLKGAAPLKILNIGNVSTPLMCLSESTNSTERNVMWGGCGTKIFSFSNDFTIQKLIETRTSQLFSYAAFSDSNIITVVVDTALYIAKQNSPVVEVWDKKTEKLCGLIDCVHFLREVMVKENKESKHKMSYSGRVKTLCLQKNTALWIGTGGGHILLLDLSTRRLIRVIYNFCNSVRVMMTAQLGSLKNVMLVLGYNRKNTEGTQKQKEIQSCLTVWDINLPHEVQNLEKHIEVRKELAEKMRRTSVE

SMILES | IC50 (human GST-CLK1) | IC50 (LRRK2 (G2019S)) | IC50 (human GST-DYRK1A)
COc1cc(S(=O)(=O)N2CCOCC2)ccc1Nc1nc(NC2CCCCC2)c2cc[nH]c2n1 [Example 26, N^4-cyclohexyl-N^2-(2-methoxy-4-(morpholinosulfonyl)phenyl)-7H-pyrrolo[2,3-d]pyrimidine-2,4-diamine 2,2,2-trifluoroacetate] | 301 to 1000 nM | < 100 nM | 301 to 1000 nM
COc1cc(S(C)(=O)=O)ccc1Nc1nc(NCC(C)C)c2cc[nH]c2n1 [Example 12, N^4-isobutyl-N^2-(2-methoxy-4-(methylsulfonyl)phenyl)-7H-pyrrolo[2,3-d]pyrimidine-2,4-diamine 2,2,2-trifluoroacetate] | 301 to 1000 nM | < 100 nM | 301 to 1000 nM
O=C(c1ccc(Nc2nc(NC3CC3)c3cc[nH]c3n2)c2c1OCCO2)N1CCOCC1 [Example 56, (8-((4-(cyclopropylamino)-7H-pyrrolo[2,3-d]pyrimidin-2-yl)amino)-2,3-dihydrobenzo[b][1,4]dioxin-5-yl)(morpholino)methanone] | 301 to 1000 nM | < 100 nM | 301 to 1000 nM
COc1cc(S(=O)(=O)N2CCC(N3CCOCC3)CC2)ccc1Nc1nc(NC2CCC2)c2cc[nH]c2n1 [Example 23, N^4-cyclobutyl-N^2-(2-methoxy-4-((4-morpholinopiperidin-1-yl)sulfonyl)phenyl)-7H-pyrrolo[2,3-d]pyrimidine-2,4-diamine 2,2,2-trifluoroacetate] | 301 to 1000 nM | < 100 nM | 301 to 1000 nM
COc1cc(S(=O)(=O)N2CCOCC2)ccc1Nc1nc(NC2CCC2)c2cc[nH]c2n1 [Example 22, N^4cyclobutyl-N^2-(2-methoxy-4-(morpholinosulfonyl)phenyl)-7H-pyrrolo[2,3-d]pyrimidine-2,4-diamine] | 301 to 1000 nM | < 100 nM | 301 to 1000 nM
COc1cc(S(=O)(=O)N2CCOCC2)ccc1Nc1nc(NC2CC2)c2cc[nH]c2n1 [Example 57, N^4-cyclopropyl-N^2-(2-methoxy-4-(morpholinosulfonyl)phenyl)-7H-pyrrolo[2,3-d]pyrimidine-2,4-diamine] | 301 to 1000 nM | < 100 nM | 301 to 1000 nM
CNc1nc(Nc2ccc(S(=O)(=O)N3CCC(N4CCOCC4)CC3)cc2OC)nc2[nH]ccc12 [Example 3, N^2-(2-methoxy-4-((4-morpholinopiperidin-1-yl)sulfonyl)phenyl)-N^4-methyl-7H-pyrrolo[2,3-d]pyrimidine-2,4-diamine 2,2,2-trifluoroacetate] | 301 to 1000 nM | < 100 nM | 301 to 1000 nM
COc1cc(S(C)(=O)=O)ccc1Nc1nc(NC2CCCCC2)c2cc[nH]c2n1 [Example 27, N^4-cyclohexyl-N^2-(2-methoxy-4-(methylsulfonyl)phenyl)-7H-pyrrolo[2,3-d]pyrimidine-2,4-diamine 2,2,2-trifluoroacetate] | 301 to 1000 nM | < 100 nM | 301 to 1000 nM
COc1cc(S(=O)(=O)N2CCOCC2)ccc1Nc1nc(NCC(C)C)c2cc[nH]c2n1 [Example 10, N^4-isobutyl-N^2-(2-methoxy-4-(morpholinosulfonyl)phenyl)-7H-pyrrolo[2,3-d]pyrimidine-2,4-diamine] | 301 to 1000 nM | < 100 nM | 301 to 1000 nM
COc1cc(S(C)(=O)=O)ccc1Nc1nc(NC2CCC2)c2cc[nH]c2n1 [Example 24, N^4-cyclobutyl-N^2-(2-methoxy-4-(methylsulfonyl)phenyl)-7H-pyrrolo[2,3-d]pyrimidine-2,4-diamine] | 301 to 1000 nM | < 100 nM | 301 to 1000 nM
COc1cc(S(=O)(=O)N2CCOCC2)ccc1Nc1nc(NCC2CCC2)c2cc[nH]c2n1 [Example 37, N^4-(cyclobutylmethyl)-N^2-(2-methoxy-4-(morpholinosulfonyl)phenyl)-7H-pyrrolo[2,3-d]pyrimidine-2,4-diamine] | 301 to 1000 nM | < 100 nM | 301 to 1000 nM
CC(C)Nc1nc(Nc2ccc(C(=O)N3CCOCC3)c3c2OCCO3)nc2[nH]ccc12 [Example 45, (8-((4-(isopropylamino)-7H-pyrrolo[2,3-d]pyrimidin-2-yl)amino)-2,3-dihydrobenzo[b][1,4]dioxin-5-yl)(morpholino)methanone 2,2,2-trifluoroacetate] | 301 to 1000 nM | < 100 nM | 301 to 1000 nM
COCC(C)(C)Nc1nc(Nc2ccc(S(=O)(=O)N3CCOCC3)cc2OC)nc2[nH]ccc12 [Example 34, N^4-(1-methoxy-2-methylpropan-2-yl)-N^2-(2-methoxy-4-(morpholinosulfonyl)phenyl)-7H-pyrrolo[2,3-d]pyrimidine-2,4-diamine] | 301 to 1000 nM | < 100 nM | 301 to 1000 nM
O=C(c1ccc(Nc2nc(NC3CCC3)c3cc[nH]c3n2)c2c1OCCO2)N1CCOCC1 [Example 47, (8-((4-(cyclobutylamino)-7H-pyrrolo[2,3-d]pyrimidin-2-yl)amino)-2,3-dihydrobenzo[b][1,4]dioxin-5-yl)(morpholino)methanone] | 301 to 1000 nM | < 100 nM | 301 to 1000 nM
O=C(c1ccc(Nc2nc(NC3CCOCC3)c3cc[nH]c3n2)c2c1OCCO2)N1CCOCC1 [Example 52, morpholino(8-((4-((tetrahydro-2H-pyran-4-yl)amino)-7H-pyrrolo[2,3-d]pyrimidin-2-yl)amino)-2,3-dihydrobenzo[b][1,4]dioxin-5-yl)methanone 2,2,2-trifluoroacetate] | 301 to 1000 nM | < 100 nM | 301 to 1000 nM
CNc1nc(Nc2ccc(S(C)(=O)=O)cc2OC)nc2[nH]ccc12 [Example 4, N^2-(2-methoxy-4-(methylsulfonyl)phenyl)-N^4-methyl-7H-pyrrolo[2,3-d]pyrimidine-2,4-diamine 2,2,2-trifluoroacetate] | 301 to 1000 nM | < 100 nM | 301 to 1000 nM

Further lines, results first:

IC50 (human GST-CLK1) | IC50 (LRRK2 (G2019S)) | IC50 (human GST-DYRK1A) | SMILES
301 to 1000 nM | < 100 nM | 301 to 1000 nM | O=C(c1ccc(Nc2nc(NC3CCCC3)c3c(C(F)(F)F)c[nH]c3n2)c2c1CCO2)N1CCOCC1 [Example 453, (7-((4-(cyclo-pentylamino)-5-(trifluoromethyl)-7H-pyrrolo[2,3-d]pyrimidin-2-yl)amino)-2,3-dihydrobenzo-furan-4-yl) (morpholino) methanone]
301 to 1000 nM | < 100 nM | 301 to 1000 nM | O=C(c1ccc(Nc2nc(NC3CCCCC3)c3c(C(F)(F)F)c[nH]c3n2)c2c1CCO2)N1CCOCC1 [Example 454, (7-((4-(cyclo-hexylamino)-5-(trifluoromethyl)-7H-pyrrolo[2,3-d]pyrimidin-2-yl)amino)-2,3-dihydrobenzo-furan-4-yl) (morpholino) methanone]
< 100 nM | < 100 nM | 301 to 1000 nM | COc1cc(S(C)(=O)=O)ccc1Nc1nc(N[C@H]2CCOC2)c2c(C(F)(F)F)c[nH]c2n1 [Example 384, (S)-N^2-(2-methoxy-4-(methylsulfonyl)phenyl)-N^4-(tetrahydrofuran-3-yl)-5-(trifluoromethyl)-7H-pyrrolo[2,3-d]pyrimidine-2,4-diamine]
< 100 nM | < 100 nM | 301 to 1000 nM | COc1cc(P(C)(C)=O)ccc1Nc1nc(NC2CCOCC2)c2c(C(F)(F)F)c[nH]c2n1 [Example 389, (3-methoxy-4-((4-((tetrahydro-2H-pyran-4-yl)amino)-5-(trifluoromethyl)-7H-pyrrolo[2,3-d]pyrimidin-2-yl)amino)phenyl) dimethyl-phosphine oxide]
301 to 1000 nM | < 100 nM | 301 to 1000 nM | COc1cc(P(C)(C)=O)ccc1Nc1nc(NCC2CCC2)c2c(C(F)(F)F)c[nH]c2n1 [Example 391, (4-((4-((cyclo-butylmethyl)amino)-5-(trifluoromethyl)-7H-pyrrolo[2,3-d]pyrimidin-2-yl)amino)-3-methoxyphenyl) dimethyl-phosphine oxide]
301 to 1000 nM | 301 to 1000 nM | 301 to 1000 nM | O=C(c1ccc(Nc2nc(NCC3CCCC3)c3c(C(F)(F)F)c[nH]c3n2)c2c1CCO2)N1CCOCC1 [Example 463, (7-((4-((cyclo-pentylmeth-yl)amino)-5-(trifluoromethyl)-7H-pyrrolo[2,3-d]pyrimidin-2-yl)amino)-2,3-dihydrobenzo-furan-4-yl) (morpholino) methanone]
< 100 nM | < 100 nM | < 100 nM | O=C(c1ccc(Nc2nc(N[C@H]3CCOC3)c3c(C(F)(F)F)c[nH]c3n2)c2c1CCO2)N1CCOCC1 [Example 455]
301 to 1000 nM | < 100 nM | 301 to 1000 nM | CCCCNc1nc(Nc2ccc(C(=O)N3CCOCC3)c3c2OCC3)nc2[nH]cc(C(F)(F)F)c12 [Example 465, (7-((4-(butylamino)-5-(trifluoromethyl)-7H-pyrrolo[2,3-d]pyrimidin-2-yl)amino)-2,3-dihydrobenzo-furan-4-yl) (morpholino) methanone]
